Values quoted from earlier work as cited in patent publication US20240130371A1, “ENVIRONMENTAL PROTECTION SYSTEMS AND METHODS OF GREENHOUSE GAS CAPTURE VIA CALCIUM HYDROXIDE” (priority 2021, published 2024).

Conditions: common coronavirus killers

Structure (SMILES): CC(C)O [isopropyl alcohol]
- pH: around 8
